Values of other authors, collected in US20030008014A1, “Truncated apolipoprotein B-containing lipoprotein particles for delivery of compounds to tissues or cells” (priority 2001, published 2003).

Experiments:
breast tumor xenografts = settings: two 10 mg/kg injections on days 1 and 4

solubility in phospholipid disks [mole %] | Structure (SMILES) | inhibition of tumor growth (breast tumor xenografts)
~30 | CC(C)CCC[C@@H](C)[C@H]1CC[C@H]2[C@@H]3CC=C4C[C@@H](O)CC[C@]4(C)[C@H]3CC[C@]12C [Free cholesterol, cholesterol] | 
 | CC(=O)O[C@H]1C(=O)[C@@]2(C)[C@H]([C@H](OC(=O)c3ccccc3)[C@]3(O)C[C@H](OC(=O)[C@H](O)[C@@H](NC(=O)c4ccccc4)c4ccccc4)C(C)=C1C3(C)C)[C@]1(OC(C)=O)CO[C@@H]1C[C@@H]2O [paclitaxel] | maximal inhibition of tumor growth
